Results as given in patent US20040006042A1, “Diaminopyrimidines and combination therapies effective for treatment of P-glycoprotein positive cancers” (priority 1998, published 2004).
Values after ≈ are worked out from the molar mass of the structure shown. Like-named read-outs stand apart in the source and are kept apart here.

Tests used:
[1] = test system: P388/ADR leukemia; experiment: In vivo P388/ADR leukemia life span study; parameters: species or system CD2F1 mice
[2] = test system: P388 murine leukemia cells; experiment: Combination of antifolates with FU and LV on P388 proliferation; format: cell-based
[3] = test system: C26/10 tumor; experiment: C26/10 s.c. tumor growth delay study; format: in vivo, CD2F1 mice; details: tumor growth delay to 750 mg, s.c. implant, treated i.p. Days 3-7 and 10-14; >5 to 6 days = antitumor effect
Method: (§1) To test compounds of the present invention in vivo, the following methodology was used. P388 leukemia and its Adriamycin resistant subline, P388/ADR were passed weekly in DBA/2 mice as i.p. implants of 10^5 and 10^6 cells, respectively. Animals bearing P388/ADR passage were treated with 7 mg/kg Adriamycin on Day 3 post-implant as a resistance selection pressure. C26/clone 10 was passed every 2 weeks into Balb/c mice as tumor fragments (approximately 30 mg) which were obtained from tumors 1 g in mass.
For the tumor growth delay studies with C26/10, CD2F1 mice were implanted s.c. with 30 mg tumor fragments in the region of the right axilla with the aid of a trocar on Day 0. Animals were treated i.p. with test agents in the vehicles described above on Days 3-7 and 10-14. Adriamycin was dosed i.p. in saline on Days 5, 9, and 13. Tumors in the treated and control groups were measured twice weekly in two perpendicular dimensions and tumor mass calculated according to the formula: mass (mg)=(a×b^2)/2 where “b” is the smallest tumor dimension and “a” is the largest. Calculations of tumor growth delay, defined as the median time (in days) for the treated tumors to reach 750 mg in size minus the median time (in days) for the control tumors to reach 750 mg in size, were as described previously (Schabel, 1977; Leopold, 1985; Elliot, 1984). Growth delays in excess of 5 to 6 days in the C26/10 model are considered to be an antitumor effect.

[4] = test system: P388 leukemia; experiment: In vivo P388 leukemia life span study; parameters: species or system CD2F1 mice; details: maximum tolerated dose, i.p. Days 3-11 (Adriamycin Days 3, 7, 11); >130 = antitumor effect
[5] = test system: P388S cells; experiment: In vitro growth inhibition of P388S cells; format: cell-based; details: Mus musculus, P388/S; in vitro; read-out: P388S IC50
[6] = test system: C26 murine colon tumor cells; experiment: Combination of antifolates with FU and LV on C26 proliferation; format: cell-based
[7] = test system: Colon 26/clone 10 (C26/10); experiment: Colon 26/clone 10 i.p. life span study; format: in vivo, CD2F1 mice
Method: as §1
Colon 26/clone 10 (C26/10) life span studies were conducted in CD2F1 mice. C26/C10 cells were implanted i.p. on Day 0. Animals were treated i.p. with test agents in the vehicles described above on Days 3-7 and 10-14. Adriamycin was dosed i.p. in saline on Days 5, 9, and 13. […] Percent T/C values in excess of 130 are indicative of an antitumor effect in this model.

[8] = test system: colon cancer; details: cited from earlier work
[9] = test system: P388/ADR cells; experiment: In vitro growth inhibition of P388/ADR cells; format: cell-based, murine
[10] = test system: P388/ADR cells; experiment: Combination of antifolates with FU and LV on P388/ADR proliferation; format: cell-based, murine
[11] = test system: HT29 human colon adenocarcinoma cells; experiment: Combination of antifolates with FU and LV on HT-29 proliferation (sulphorhodamine B)
[12] = in words, TMQ at a concentration 10-fold higher than the other antifolates

For `COc1cc(NCc2ccc3nc(N)nc(N)c3c2C)cc(OC)c1OC` [Trimetrexate, reference compound], the “activity against P388/ADR tumors in vivo” value ([1]; in words) was “inactive”, the “P388/ADR T/C” value ([1]; maximum tolerated dose, i.p. Days 3-11 (Adriamycin Days 3, 7, 11), >130 = antitumor effect) was 113% and the “Antifol + FU” value ([2]; antifolate 1.0 nM 24 hours, 5 μM FU final 4 hours) was 12% of control. For the same molecule, the “Antifol + LV” value ([2]; antifolate 1.0 nM 24 hours, LV 10 μM final 4.5 hours) was 85% of control, the “Antifol + LV + FU” value ([2]; antifolate 1.0 nM 24 hours, LV 10 μM final 4.5 hours, 5 μM FU final 4 hours) was 9% of control and the Antifol ([2]; antifolate 1.0 nM, 24 hours) was 80% of control. The “C26 sc T-C” value [3] was 6.8 days, the “P388S T/C” value [4] was 164% and the IC50 [5] was 0.0069 µg/mL (≈ 0.0187 µM). The “Antifol + FU” value ([6]; C26, antifolate 0.125 μM 24 hours, 5 μM FU final 4 hours) was 65% of Control, the “Antifol + LV” value ([6]; C26, antifolate 0.125 μM 24 hours, LV 10 μM final 4.5 hours) was 98% of Control and the “Antifol + FU + LV” value ([6]; C26, antifolate 0.125 μM 24 hours, LV 10 μM final 4.5 hours, 5 μM FU final 4 hours) was 64% of Control. The Antifol ([6]; C26, antifolate 0.125 μM, 24 hours) was 101% of Control, the “effect on C26 proliferation alone” value ([6]; in words, 0.125 μM) was “no effect” and the “synergy with FU and/or LV on C26 cells” value ([6]; in words, 0.125 μM) was “no significant synergy”. The “C26 ip T/C” value ([7]; i.p. implant, treated i.p. Days 3-7 and 10-14 (Adriamycin Days 5, 9, 13), >130 = antitumor effect) was 119%, the “activity against C26 colon tumor in vivo” value ([7]; in words, T/C×100>130 represents in vivo antitumor activity) was “without activity” and the response rate ([8]; TMQ added to LV/FU, colon cancer patients previously treated with FU) was 20%. For the same molecule, the response rate ([8]; combination of TMQ, FU and LV, metastatic colorectal cancer patients) was 50%, the IC50 ([9]; Mus musculus, P388/ADR, in vitro) was 0.152 µg/mL (≈ 0.411 µM) and the R/S ([9]; ratio resistant (P388/ADR) to sensitive (P388S) IC50) was 22. The “Antifol + FU” value ([10]; P388/ADR, TMQ 10 nM 24 hours, 5 μM FU final 4 hours) was 83% of control, the “Antifol + LV” value ([10]; P388/ADR, TMQ 10 nM 24 hours, LV 10 μM final 4.5 hours) was 100% of control and the “Antifol + LV + FU” value ([10]; P388/ADR, TMQ 10 nM 24 hours, LV 10 μM final 4.5 hours, 5 μM FU final 4 hours) was 76% of control. For the same molecule, the Antifol ([10]; P388/ADR, TMQ 10 nM, 24 hours) was 92% of control, the “activity alone against P388/ADR cells” value [10, 12] was “little activity alone” and the “increase in activity by addition of FU or LV, P388/ADR cells” value [10, 12] was “nor was a significant increase in activity observed”. The “Antifol + FU” value ([11]; antifolate 62.5 nM 24 hours, 5 μM FU final 4 hours) was 35% of control, the “Antifol + LV” value ([11]; antifolate 62.5 nM 24 hours, LV 10 μM final 4.5 hours) was 77% of control and the “Antifol + LV + FU” value ([11]; antifolate 62.5 nM 24 hours, LV 10 μM final 4.5 hours, 5 μM FU final 4 hours) was 30% of control. For the same molecule, the Antifol ([11]; antifolate 62.5 nM, 24 hours) was 75% of control.
